Assays:
FLT3 phosphorylation = experiment: plasma inhibitory activity (PIA) test on patient plasma samples; assay type: cell-based, human
Description: For 7 patients (patients 1 to 7) who were repeatedly administered with 10 mg of Compound A1 one time a day or 20 mg one time a day in a clinical test involving patients with acute myeloid leukemia, in-plasma concentrations of Compound A1 were measured before administration and after 4 hours after the administration on day 1, day 8, day 15, and day 22 of the first cycle (one cycle is 28 days) and on day 1 of the second cycle, and on the end day of the administration of Compound A1. In addition, a plasma inhibitory activity (PIA) test (Blood, 2006, Vol. 108, p 3477 to 3483) was carried out using plasma samples from the same patients at the same time points. A graph showing a correlation between the in-plasma concentrations and the PIA test results is shown FIG. 1. In FIG. 1, open circles, open rectangles, open triangles, filled circles, filled triangles, filled rectangles, and cross symbols indicate the results of patients 1 to 7, respectively.

[1] = tested on: patients with acute myeloid leukemia; experiment: clinical test, repeated QD administration to patients with acute myeloid leukemia (side effects); assay type: in vivo, human; settings: AML patients, 10 mg or 20 mg one time a day
acute myeloid leukemia = experiment: BID administration test in a patient with acute myeloid leukemia (bone marrow examination); assay type: in vivo, human; settings: one AML patient, 75 mg BID before a meal, day 29 of administration; 55% before administration
Description: A patient with acute myeloid leukemia is subjected to the BID administration of Compound A of 25 to 225 mg per administration before having a meal two times a day. A preferred effect (for example, a decrease in the proportion of blast cells in the bone marrow, or a curing effect equal to or higher than PR) is confirmed. The specific doses per administration are 50 mg, 75 mg, 100 mg, or 150 mg. Patients have received chemotherapy with cytarabine, daunorubicin, idarubicin, and the like as preliminary curing, and some patients have not reached CR, CRi, CRp, or PR by preliminary curing. The curing effect is determined by the following criteria. The bone marrow puncture sample is evaluated and determined according to the following criteria. Complete Response (CR): a state in which […], and the neutrophil count and the platelet count are respectively 1,000 counts/μL or more and 100,000 counts/μL or more. Complete Response with incomplete platelet recovery ([…]): a state in which myeloblasts are 5% or less and the neutrophil count is 1,000 counts/μL or more, but the platelet count is 100,000 counts/μL or less. Complete Response with incomplete hematological recovery (CRi): a state in which myeloblasts are 5% or less and there is no blood transfusion dependency, but the neutrophil count is 1,000 counts/μL or less. […]

[2] = tested on: FLT3-ITD+D698N-expressing 32D cell; experiment: inhibitory effect on proliferation of mutant FLT3-expressing 32D cell (intracellular ATP level); assay type: cell-based; settings: for IC50: 32D, 72 h, Mutation type FLT3-ITD + D698N, day 3, ATP level, read-out: Effect determination (IC50 value class), proliferation
Description: (§1) 32D cell line expressing FLT3 gene mutations (FLT3-ITD+D698N, +N676T) found according to the random mutagenesis analysis method was cultured for a predetermined period of time (setting: 37° C. and 5% CO2, steam saturated), and then the cells were plated on a 384-well plate at a cell concentration of 299 cells/well. The random mutagenesis analysis method was carried out according to the following reference document.
(§2) Each of the test substances was dissolved in dimethyl sulfoxide (DMSO) to prepare a DMSO solution containing 20 mmol/L of the test substance. After serially diluting with DMSO and further diluting with a medium containing 10% serum, each of the test substance solutions having a concentration 10 times the final treatment concentration was prepared. […] In addition, a group (a positive control group) in which only DMSO containing no test substance was added to a well in which cells were plated and a group (a negative control group) in which only DMSO containing no test substance was added to a well in which only the medium was added were prepared. On day 3 after adding the test substance solution, the intracellular ATP level was measured with “Cell” ATP Assay reagent Ver. 2 (manufactured by TOYO B-Net Co., Ltd.) to evaluate cell viability.
(§3) The suppression rate was determined by assuming that the amount of luminescence signal in the negative control group corresponded to the suppression of cell viability by 100% and the amount of luminescence signal in the positive control group corresponded to the suppression of cell viability by 0%. […] 3 (manufactured by ITOCHU Techno-Solutions Corporation).

[3] = tested on: FLT3-ITD+N676T-expressing 32D cell; experiment: as above; assay type: cell-based; settings: for IC50: 32D, 72 h, Mutation type FLT3-ITD + N676T, day 3, ATP level, read-out: Effect determination (IC50 value class), proliferation
Description: as §1, §2, §3

[4] = tested on: FLT3-ITD-expressing 32D cell; experiment: as above; assay type: cell-based; settings: 72 h, Mutation type FLT3-ITD, day 3, ATP level, read-out: Effect determination (IC50 value class), proliferation
Description: as §1, §2, §3

| Structure (SMILES) | in-plasma concentration at which the phosphorylation inhibition rate reaches 100% (FLT3 phosphorylation; based on the regression line of FIG. 1, 7 AML patients given 10 mg or 20 mg one time a day) | in-plasma concentration required to exhibit a remarkable FLT3 phosphorylation inhibition rate (FLT3 phosphorylation; concluded from PIA test results of FIG. 1) [ng/mL] | serious side effects [1] | proportion of blast cells in the bone marrow (acute myeloid leukemia) [%] | IC50 [2] [nM] | inhibitory effect on proliferation, in words ([2]; FLT3-ITD+D698N-expressing 32D cell, compared with FLT3-ITD-expressing 32D cell) | IC50 [3] [nM] | inhibitory effect on proliferation, in words ([3]; FLT3-ITD+N676T-expressing 32D cell) | IC50 [4] [nM] |
| --- | --- | --- | --- | --- | --- | --- | --- | --- | --- |
| CCCNc1nc(Nc2ccc(C#N)cc2)ncc1C#CCCCNC(=O)[C@H](C)N(C)C(=O)/C=C/CN(C)C [Compound A1, (S,E)-N-(1-((5-(2-((4-cyanophenyl)amino)-4-(propylamino)pyrimidin-5-yl)-4-pentyn-1-yl)amino)-1-oxopropan-2-yl)-4-(dimethylamino)-N-methyl-2-butenamide] | exceeds 30 ng/mL | ≥ 40 | No serious side effects were observed | 18 | 0.5 to 1 | strong inhibitory effect | 0.5 to 1 | strong inhibitory effect | 0.1 to 0.5 |
| CCc1nc(C(N)=O)c(Nc2ccc(N3CCC(N4CCN(C)CC4)CC3)c(OC)c2)nc1NC1CCOCC1 [Gilteritinib, 6-ethyl-3-[3-methoxy-4-[4-(4-methylpiperazin-1-yl)piperidin-1-yl]anilino]-5-(oxan-4-ylamino) pyrazine-2-carboxamide, reference compound] | – | – | – | – | 10 to 50 | – | 5 to 10 | – | 1 to 5 |
